Laboratory results as given in patent publication US11440907B1 (Merck Patent GmbH, priority 2018, dated 2022).

Experiments:
Type in all cases: cell-based
[1] = tested on: XBP1(u)-luciferase splicing reporter in HepG2 hepatoma cells; experiment: HepG2 XBP1 reporter assay (XBP1(u)-Luc); conditions: Homo sapiens, 6 hours after compound addition; for IC50: Table 4; for EC50: Table 3, read-out: XBP1-luc HepG2 1 EC50
[2] = tested on: NCI-H929 (Multiple myeloma cells); experiment: Cell viability (ATPLite) in NCI-H929; conditions: Homo sapiens, 96 hours
Method: (§1) Cells were removed from liquid nitrogen storage, thawed and expanded in appropriate growth media. Once expanded, cells were seeded in 384-well tissue culture treated plates at 500 cells per well. After 24 hours, cells were treated for either 0 hours or treated for 96 hours with a testing compound (at the concentrations of 100 nM and 2 uM). At the end of either 0 hours or 96 hours, cell status was analyzed using ATPLite (Perkin Elmer) to assess the biological response of cells to the testing compound.

[3] = tested on: DU4475 (breast cancer cells); experiment: Cell viability (ATPLite) in DU4475; conditions: Homo sapiens, DU-4475, 96 hours
Method: as §1

[4] = tested on: β-catenin-TCF-mediated reporter transcription activity in Colo 205 cells; experiment: Colo 205 reporter assay (TCF/LEF promoter-driven firefly luciferase); conditions: Homo sapiens; Colo 205 TCF/LEF luciferase reporter, 5 hours after compound addition, 384 well; read-out: Colo205 IC50
[5] = tested on: intracellular calcium flux in Colo-205 cells; experiment: Calcium flux assay (FLIPR Calcium 5 Assay Kit, FLIPR3); conditions: Homo sapiens, 0.6 h, calcium flux measured over 36 minutes, read-out: Colo 205 Calcium Flux assay 384w Boston Ca assay FLIPR3 Colo EC50
Method: Compounds described herein induced ER stress by causing intracellular calcium flux. Calcium flux was measured in Colo-205 cells using the FLIPR® Calcium 5 Assay Kit according to manufacturer's protocol (Molecular Devices, Cat. #R8186) on a FLIPR3 system (Molecular Devices). Calcium flux is measured over 36 minutes. The Colo-205 calcium flux assay data are summarized in Table 3: A<0.6 μM; 0.6 μM≤B<2.0 μM; 2.0 μM≤C<10.0 μM; D≥10.0 μM.

Compound | IC50 [1] [nM] | IC50 [2] [nM] | IC50 [3] [nM] | IC50 [4] [nM] | EC50 [1] [nM] | EC50 [5] [nM]
Cc1cc(N2CCCOCC2c2cc3c(cc2Cl)NC(=O)CO3)nc(N)n1 (stereo not shown) [C-35] | < 600 | < 1000 | < 1000 |  |  | 
COc1cc(Cl)c([C@H]2COCCCN2c2cc(C)nc(N)n2)cc1O [C-36] | < 600 | < 1000 | < 1000 |  |  | 
Cc1cc(N2CCCOCC2c2cc3c(cc2Cl)CCN3)nc(N)n1 (stereo not shown) [C-37] |  | < 1000 | < 1000 |  |  | 
Cc1cc(N2CCCOCC2c2cc(C)c(F)cc2Cl)nc(N)n1 (stereo not shown) [C-38] | 2000 to 5000 | 1000 to 10000 | 1000 to 10000 |  |  | 
COc1cc(Cl)c(C2COCCCN2c2cc(C)nc(N)n2)cc1OC(C)C (stereo not shown) [C-39] | 600 to 2000 | 1000 to 10000 | < 1000 |  |  | 
CCOc1cc(Cl)c(C2COCCCN2c2cc(C)nc(N)n2)cc1OCC (stereo not shown) [C-40] | < 600 | 1000 to 10000 | < 1000 |  |  | 
CCOc1cc(Cl)c(C2COCCCN2c2cc(C)nc(N)n2)cc1Cl (stereo not shown) [C-41] | < 600 | 10000 to 25000 | < 1000 |  |  | 
Cc1cc(N2CCCOC[C@H]2c2ccc(S(C)(=O)=O)cc2Cl)nc(N)n1 [C-155] |  | ≥ 25000 | ≥ 25000 |  |  | 

Now from value to compound:

IC50 [1] [nM] | IC50 [2] [nM] | IC50 [3] [nM] | IC50 [4] [nM] | EC50 [1] [nM] | EC50 [5] [nM] | Compound
 |  |  | < 300 | < 600 | < 600 | Cc1cc(N2CCCOC[C@@H]2c2ccc(NC3COC3)cc2Cl)nc(N)n1 [I-215, 4-[(3S)-3-[2-chloro-4-(oxetan-3-ylamino)phenyl]-1,4-oxazepan-4-yl]-6-methyl-pyrimidin-2-amine]
 |  |  | < 300 | < 600 | < 600 | Cc1cc(N2CCCOC[C@@H]2c2ccc(N3CCOCC3)cc2Cl)nc(N)n1 [I-216, 4-[(3S)-3-(2-chloro-4-morpholino-phenyl)-1,4-oxazepan-4-yl]-6-methyl-pyrimidin-2-amine]
 |  |  | < 300 | < 600 | < 600 | COC1CN(c2ccc([C@H]3COCCCN3c3cc(C)nc(N)n3)c(Cl)c2)C1 [I-217, 4-[(3S)-3-[2-chloro-4-(3-methoxyazetidin-1-yl)phenyl]-1,4-oxazepan-4-yl]-6-methyl-pyrimidin-2-amine]
 |  |  | < 300 | < 600 | < 600 | COC1CCN(c2ccc([C@H]3COCCCN3c3cc(C)nc(N)n3)c(Cl)c2)C1 (stereo partly drawn) [I-218, 4-[(3S)-3-[2-chloro-4-(3-methoxypyrrolidin-1-yl)phenyl]-1,4-oxazepan-4-yl]-6-methyl-pyrimidin-2-amine]
 |  |  | 300 to 1000 | < 600 | < 600 | Cc1cc(N2CCCOC[C@@H]2c2ccc(N3CCC4(CCOC4)C3)cc2Cl)nc(N)n1 (stereo partly drawn) [I-219, 4-[(3S)-3-[2-chloro-4-(2-oxa-7-azaspiro[4.4]nonan-7-yl)phenyl]-1,4-oxazepan-4-yl]-6-methyl-pyrimidin-2-amine]
 |  |  | < 300 | < 600 | < 600 | Cc1cc(N2CCCOC[C@@H]2c2ccc(N3CC4COCC4C3)cc2Cl)nc(N)n1 (stereo partly drawn) [I-220, 4-[(3S)-3-[4-(1,3,3a,4,6,6a-hexahydrofuro[3,4-c]pyrrol-5-yl)-2-chloro-phenyl]-1,4-oxazepan-4-yl]-6-methyl-pyrimidin-2-amine]
 |  |  | 300 to 1000 | 600 to 2000 | < 600 | Cc1cc(N2CCCOCC2c2ccc(S(=O)(=O)C3CCC3)cc2Cl)nc(N)n1 (stereo not shown) [I-222, 4-(3-(2-chloro-4-(cyclobutylsulfonyl)phenyl)-1,4-oxazepan-4-yl)-6-methylpyrimidin-2-amine]
 |  |  | < 300 | 2000 to 5000 | < 600 | COc1ccc(F)cc1[C@H]1COCCCN1c1cc(C)nc(N)n1 [I-288]
 |  |  | 300 to 1000 | 600 to 2000 | < 600 | Cc1cc(N2CCCOCC2c2cc(Br)ccc2Cl)nc(N)n1 (stereo not shown) [I-295]
 |  |  | 300 to 1000 | < 600 | < 600 | CCS(=O)(=O)c1ccc(C2COCCCN2c2cc(C)nc(N)n2)c(Cl)c1 (stereo not shown) [I-297]
 |  |  | < 300 | 2000 to 5000 | < 600 | Cc1cc(N2CCCOCC2c2ccc(C(N)=O)cc2Cl)nc(N)n1 (stereo not shown) [I-298]
 |  |  | 300 to 1000 | 600 to 2000 | < 600 | C=C(C)c1ccc(C2COCCCN2c2cc(C)nc(N)n2)c(Cl)c1 (stereo not shown) [I-299]
 |  |  | 300 to 1000 | 600 to 2000 | < 600 | Cc1cc(N2CCCOCC2c2cc(-n3cccc3)ccc2Cl)nc(N)n1 (stereo not shown) [I-300]
 |  |  | 300 to 1000 | < 600 | < 600 | Cc1cc(N2CCCOCC2c2ccc(NC(=O)C3(O)CC3)cc2Cl)nc(N)n1 (stereo not shown) [I-303]
 |  |  | 300 to 1000 | 600 to 2000 | < 600 | Cc1cc(N2CCCOCC2c2cc(N3CCCC3)ccc2Cl)nc(N)n1 (stereo not shown) [I-304]
 |  |  | 300 to 1000 | < 600 | < 600 | Cc1cc(N2CCCOCC2c2ccc(NC(=O)C3CC3)cc2Cl)nc(N)n1 (stereo not shown) [I-305]
 |  |  | 300 to 1000 | < 600 | < 600 | CCC(=O)Nc1ccc(C2COCCCN2c2cc(C)nc(N)n2)c(Cl)c1 (stereo not shown) [I-306]
 |  |  | < 300 | < 600 | < 600 | Cc1nc(N)nc2c1-c1c(NC3COC3)ccc(Cl)c1C1COCCCN21 (stereo not shown) [I-309]
